This is an account of results in PMC8079065, “Design, synthesis and in vitro and in vivo biological evaluation of flurbiprofen amides as new fatty acid amide hydrolase/cyclooxygenase-2 dual inhibitory potential analgesic agents” (Journal of Enzyme Inhibition and Medicinal Chemistry, 2021).

For experiment [1], the system named is FAAH. The following applies: cited from earlier work.
Experiment [2] addresses T1, FAAH (Rattus norvegicus, UniProt P97612).
T1 construct: rat or mouse brain homogenates as the enzyme source; from tissue; host or cells: rat brain (minus cerebellum), Wistar or Sprague-Dawley, washed membrane homogenate
T1 sequence (P97612 1-579): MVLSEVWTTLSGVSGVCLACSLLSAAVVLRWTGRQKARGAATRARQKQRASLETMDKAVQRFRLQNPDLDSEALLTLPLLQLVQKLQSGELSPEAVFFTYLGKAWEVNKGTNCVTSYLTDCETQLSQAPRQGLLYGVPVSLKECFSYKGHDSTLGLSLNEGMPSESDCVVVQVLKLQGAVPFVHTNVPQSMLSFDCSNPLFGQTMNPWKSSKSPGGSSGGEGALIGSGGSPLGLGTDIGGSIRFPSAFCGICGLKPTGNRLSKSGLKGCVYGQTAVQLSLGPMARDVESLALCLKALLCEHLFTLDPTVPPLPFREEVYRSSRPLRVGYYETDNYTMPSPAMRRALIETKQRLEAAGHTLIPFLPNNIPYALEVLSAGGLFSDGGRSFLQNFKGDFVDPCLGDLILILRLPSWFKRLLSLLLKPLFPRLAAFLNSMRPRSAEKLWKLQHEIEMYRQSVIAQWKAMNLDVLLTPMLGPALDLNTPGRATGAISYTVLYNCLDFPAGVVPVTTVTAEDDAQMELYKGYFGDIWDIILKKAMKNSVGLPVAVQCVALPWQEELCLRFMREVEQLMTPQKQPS
The following applies: shown for comparative purposes, cited from earlier work; for IC50: rat brain, read-out: IC50 for inhibition of rat brain AEA hydrolysis.

Experiment [3] has as its target T1, FAAH. As to the kind of experiment: FAAH assay: [3H]AEA hydrolysis by rat brain homogenates. Type of experiment: biochemical. The following applies: for IC50: 0.5 µM [3H]AEA, rat brain homogenates; for increase in FAAH inhibitory activity versus Flu-AM1: IC50 compared with Flu-AM1.
Where [4] appears, read: derived from pI50, read-out: IC50 for inhibition of rat brain AEA hydrolysis.
The mark [5] stands for this setting: means ± s.e.m., n = 3–4, read-out: pI50 (-logIC50) for inhibition of rat brain AEA hydrolysis (converted).

Read-outs that look alike come from different tables or passages of the source.

As for `Cc1cccnc1NC(=O)C(C)c1ccc(-c2ccccc2)c(F)c1` (stereo not shown) [Flu-AM1], in experiment [1], the “potency against FAAH versus flurbiprofen” value is reported as “about 60 fold”. In addition, in experiment [2], the IC50 is 440 nM and the “pI50 (-logIC50) for inhibition of rat brain AEA hydrolysis” value is given as 6.36 ± 0.02.
With `CC(C(=O)Nc1ncccc1C(F)(F)F)c1ccc(-c2ccccc2)c(F)c1` (stereo not shown) [Flu-AM3, 2–(2-Fluoro-(1,1'-biphenyl)-4-yl)-N-(3-(trifluoromethyl)pyridin-2-yl)propanamide], the IC50 in experiment [3] (setting [4]) and in experiment [3] (setting [5]) was 110 nM in each case. In addition, in experiment [3] (rat brain), the “increase in FAAH inhibitory activity versus Flu-AM1” value is “about 4 fold”.
For the compound `CC(C(=O)Nc1ncccc1Cl)c1ccc(-c2ccccc2)c(F)c1` (stereo not shown) [Flu-AM6, N-(3-Chloropyridin-2-yl)-2-(2-fluoro-(1,1'-biphenyl)-4-yl)propanamide], the IC50 in experiment [3] (setting [4]) was 19 nM; in experiment [3] (setting [5]), 19.1 nM. Moreover, in experiment [3] (rat brain), the “increase in FAAH inhibitory activity versus Flu-AM1” value is “approximately 20 fold”. Also, in experiment [3] (rat brain, IC50 compared with flurbiprofen), the “FAAH potency versus flurbiprofen” value is “more than three orders of magnitude greater than flurbiprofen”.
`CC(C(=O)O)c1ccc(-c2ccccc2)c(F)c1` (stereo not shown) [Flurbiprofen]: in experiment [2], the IC50 is 29000 nM and the “pI50 (-logIC50) for inhibition of rat brain AEA hydrolysis” value is on record as 4.53 ± 0.02.
With `Cc1cccnc1NC(=O)C(C)c1ccc(CC(C)C)cc1` (stereo not shown) [Ibu-AM5], in experiment [1], the “potency against FAAH versus ibuprofen” value is listed as 2-3 orders of magnitude.
